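Cells were grown in 96-well plates and exposed to each compound for 48 hours at five concentrations; endpoints were interpolated linearly between bracketing concentrations, or set to the highest concentration if not reached. TGI is the concentration that stops growth completely.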
How the values were obtained:
Test in all cases: growth of human tumour cells (NCI), 48 h
[1] = test system: 786-0 renal
[2] = test system: A498 renal
[3] = test system: A549 NSCLC
[4] = test system: ACHN renal
[5] = test system: BT-549 breast
[6] = test system: CAKI-1 renal
[7] = test system: CCRF-CEM leukemia
[8] = test system: COLO 205 colon
[9] = test system: DLD-1 colon
[10] = test system: DMS 114 small cell lung
[11] = test system: DMS 273 small cell lung
[12] = test system: DU-145 prostate
[13] = test system: EKVX NSCLC
[14] = test system: HCC-2998 colon
[15] = test system: HCT-116 colon
[16] = test system: HCT-15 colon
[17] = test system: HL-60(TB) leukemia
[18] = test system: HOP-18 NSCLC
[19] = test system: HOP-62 NSCLC
[20] = test system: HOP-92 NSCLC
[21] = test system: HS 578T breast
[22] = test system: HT29 colon
[23] = test system: IGROV1 ovarian
[24] = test system: K-562 leukemia
[25] = test system: KM12 colon
[26] = test system: KM20L2 colon
[27] = test system: LOX IMVI melanoma
[28] = test system: LXFL 529 NSCLC
[29] = test system: M14 melanoma
[30] = test system: M19-MEL melanoma
[31] = test system: MALME-3M melanoma
[32] = test system: MCF7 breast
[33] = test system: MDA-MB-231 breast
[34] = test system: MDA-MB-435
[35] = test system: MDA-N
[36] = test system: MOLT-4 leukemia
[37] = test system: NCI-H226 lung
[38] = test system: NCI-H23 lung
[39] = test system: NCI-H460 lung
[40] = test system: NCI-H522 lung
[41] = test system: NCI/ADR-RES ovarian
[42] = test system: OVCAR-3 ovarian
[43] = test system: OVCAR-4 ovarian
[44] = test system: OVCAR-5 ovarian
[45] = test system: OVCAR-8 ovarian
[46] = test system: PC-3 prostate
[47] = test system: RPMI-8226 leukemia
[48] = test system: RXF 393 renal
[49] = test system: RXF-631 renal
[50] = test system: SF-268 CNS
[51] = test system: SF-295 CNS
[52] = test system: SF-539 CNS
[53] = test system: SK-MEL-2 melanoma
[54] = test system: SK-MEL-28 melanoma
[55] = test system: SK-MEL-5 melanoma
[56] = test system: SK-OV-3 ovarian
[57] = test system: SN12C renal
[58] = test system: SNB-19 CNS
[59] = test system: SNB-75 CNS
[60] = test system: SNB-78 CNS
[61] = test system: SR leukemia
[62] = test system: SW-620 colon
[63] = test system: T-47D breast
[64] = test system: TK-10 renal
[65] = test system: U251 CNS
[66] = test system: UACC-257 melanoma
[67] = test system: UACC-62 melanoma
[68] = test system: UO-31 renal

Work on O=C(/C=C/c1ccc(OCCSCCCCCCCCCCSCCOc2ccc(/C=C/C(=O)c3ccc(Cl)cc3)cc2)cc1)c1ccc(Cl)cc1 yielded a TGI [1] greater than 100 µM, a TGI [2] greater than 100 µM and a TGI [3] greater than 100 µM. The TGI [4] was greater than 100 µM, the TGI [5] was greater than 100 µM and the TGI [6] was greater than 100 µM. It also gave a TGI [7] greater than 100 µM, a TGI [8] greater than 100 µM and a TGI [9] greater than 100 µM. The TGI [10] was greater than 100 µM, the TGI [11] was greater than 100 µM and the TGI [12] was greater than 100 µM. For the same compound, the TGI [13] was greater than 100 µM, the TGI [14] was greater than 100 µM and the TGI [15] was greater than 100 µM. For the same compound, the TGI [16] was greater than 100 µM, the TGI [17] was greater than 100 µM and the TGI [18] was greater than 100 µM. The TGI [19] was 95.4 µM, the TGI [20] was 81.6 µM and the TGI [21] was greater than 100 µM. The TGI [22] was greater than 100 µM, the TGI [23] was greater than 100 µM and the TGI [24] was greater than 100 µM. The TGI [25] was greater than 100 µM, the TGI [26] was greater than 100 µM and the TGI [27] was greater than 100 µM. For the same compound, the TGI [28] was greater than 100 µM, the TGI [29] was greater than 100 µM and the TGI [30] was greater than 100 µM. The TGI [31] was greater than 100 µM, the TGI [32] was greater than 100 µM and the TGI [33] was greater than 100 µM. For the same compound, the TGI [34] was greater than 100 µM, the TGI [35] was greater than 100 µM and the TGI [36] was greater than 100 µM. The TGI [37] was greater than 100 µM, the TGI [38] was greater than 100 µM and the TGI [39] was greater than 100 µM. It also gave a TGI [40] greater than 100 µM, a TGI [41] greater than 100 µM and a TGI [42] greater than 100 µM. It also gave a TGI [43] greater than 100 µM, a TGI [44] greater than 100 µM and a TGI [45] greater than 100 µM. It also gave a TGI [46] greater than 100 µM, a TGI [47] greater than 100 µM and a TGI [48] greater than 80.6 µM. The TGI [49] was greater than 100 µM, the TGI [50] was greater than 100 µM and the TGI [51] was greater than 97.6 µM. It also gave a TGI [52] greater than 81.7 µM, a TGI [53] greater than 100 µM and a TGI [54] greater than 100 µM. It also gave a TGI [55] greater than 100 µM, a TGI [56] greater than 92.8 µM and a TGI [57] greater than 100 µM. For the same compound, the TGI [58] was greater than 100 µM, the TGI [59] was 63.3 µM and the TGI [60] was greater than 100 µM. The TGI [61] was greater than 100 µM, the TGI [62] was greater than 100 µM and the TGI [63] was greater than 100 µM. The TGI [64] was greater than 100 µM, the TGI [65] was greater than 100 µM and the TGI [66] was greater than 100 µM. For the same compound, the TGI [67] was greater than 100 µM and the TGI [68] was greater than 100 µM.
